# Results as given in patent publication US11298422B2, “Treating tumors with TTFields and an aurora kinase inhibitor” (Novocure Limited, priority 2018, dated 2022).
# Read-outs that look alike come from different tables or passages of the source.
# Experiments:
# U87-MG [1] = assay: Cytotoxicity assay (cell count at end of treatment), U87-MG; format: cell-based, human; conditions: for cytotoxic effect, Observed TTFields + AZD1152 / cytotoxic effect, AZD1152: 72 h; for cytotoxic effect, Observed TTFields + AZD1152: percentage of control; for cytotoxic effect, Expected: expected value for the combination; for cytotoxic effect, AZD1152: number of cells as percentage of control
# Procedure: (§1) The effects of the combined treatment of TTFields and the Aurora B kinase inhibitor AZD1152 was tested in 3 different glioma cell lines: U87-MG, U87-MG^shp53 and U-251. TTFields ([…], 200 kHz) were applied for 72 hours using the Inovitro system. AZD1152 was added to the media in concentrations of up to 100 nmol/L. Cell counts, cell cycle, and clonogenic potential were determined at the end of treatment. Formation of multinuclear cells was determined using microscopic images of cells stained with crystal violet.
# (§2) The effects of the combined treatment of TTFields and AZD1152 was tested using the following human glioma cell lines: U87-MG (ATCC), U-251 (ECACC) and U87-mG^shp53 (provided by Dr. Achim Temme). All cells were grown in a humidified incubator supplied with 5% CO2. Cells were maintained in EMEM, supplemented with 10% FBS, 2 mmol/L glutamine, Pen-Strep solution (100 units/ml Penicillin and 0.1 mg/ml Streptomycin), 1 mmol/L sodium pyruvate and 1% NEAA. U87-MG^shp53 cells were maintained under selection with […] geneticin. AZD1152 was obtained from Sigma, Israel.
# (§3) TTFields (1.6 V/cm RMS, 200 kHz) were applied for 72 hours using the Inovitro system. At the end of treatment, inhibition of tumor cell growth was analyzed quantitatively based on cell count. Clonogenic survival of U87-MG, U87-MG^shp53 and U-251 was tested by plating triplicates of 300 cells/dish in 6 wells dishes. After 2-3 weeks, cells were stained with crystal violet and the number of clones was quantified. Overall effect was calculated by multiplying the percentage of surviving cells at the end of treatment with the percentage of colonies formed vs. control.
# U87-MG [2] = assay: Overall effect (surviving cells x colonies formed vs. control), U87-MG; format: cell-based, human; conditions: for overall effect, Observed TTFields + AZD1152 / overall effect, AZD1152: 72 h; for overall effect, Expected: expected value for the combination; for overall effect, AZD1152: surviving cells x colonies vs. control
# Procedure: as §1, §2, §3
# U87-MG^shp53 = assay: Overall effect (surviving cells x colonies formed vs. control), U87-MG^shp53; format: cell-based, human; conditions: for dosage required to achieve an overall effect of 38%: U87-MG^shp53 (FIG. 1D); for overall effect, Observed TTFields + AZD1152 / overall effect, AZD1152: 72 h; for overall effect, Expected: expected value for the combination; for overall effect, AZD1152: surviving cells x colonies vs. control
# Procedure: as §1, §2, §3
# U-251 = assay: Overall effect based on the clonogenic assay, U-251; format: cell-based, human; conditions: for overall effect, Observed TTFields + AZD1152 / overall effect, AZD1152: 72 h; for overall effect, Observed TTFields + AZD1152: clonogenic assay; for overall effect, Expected: expected value for the combination; for overall effect, AZD1152: based on the clonogenic assay
# Procedure: as §1, §2, §3
# The overall effect for U-251 cells was determined based on the clonogenic assay. Response to TTFields application alone led to about 50% reduction in the clonogenic potential of U-251 cells (FIG. 1E).
# U87-MG [3] = assay: Flow cytometry analysis of DNA contents (ploidy), U87-MG; format: cell-based, human; conditions: 72 h
# Procedure: For cell cycle analysis, cells were removed with Trypsin immediately after 72 h treatment, washed twice with ice-cold PBS with 1% FBS and fixed with 70% ice-cold ethanol for 30 min. After fixation, cells were washed twice with ice-cold PBS with 1% FBS, pelleted and incubated in PBS containing 10 μg/ml RNase and 7.5 μg/ml7-AAD (Sigma-Aldrich) at 37° C. for 30 min. Cell cycle distribution was then quantified using the EC800 flow cytometer (Sony Biotechnology, Japan).
# FIGS. 3A-D and 4A-E show U87-MG and U87-MG^shp53 FACS analysis of DNA contents following treatment with TTFields and AZD1152. More specifically, FIGS. 3A-D depict increased polyploidy in U87-MG cells following the combined treatment of TTFields (200 kHz, 1.6 V/cm RMS) at various AZD1152 concentrations; and FIGS. 4A-E depict increased polyploidy in U87-MG^shp53 cells following the combined treatment of TTFields (200 kHz, 1.6 V/cm RMS) at various AZD1152 concentrations.
# Tables 1 and 2 depict, for U87-MG and U87-MG^shp53 respectively, numeric data corresponding to FIGS. 3 and 4. The columns in tables 1 and 2 represent the DNA copy number (e.g., 2n is the normal number of chromosomes (23 pairs=46), 4n is twice the number of chromosomes, etc.).
# [4] = patients with advanced solid tumors, cited from earlier work
# [5] = AZD1152 25 nM + TTFIELDS 200 kHz 1.6 V/cm RMS
# [6] = AZD1152 50 nM + TTFIELDS 200 kHz 1.6 V/cm RMS
# [7] = AZD1152 100 nM + TTFIELDS 200 kHz 1.6 V/cm RMS
# [8] = AZD1152 25 nM, CONTROL (no TTFields)
# [9] = AZD1152 50 nM, CONTROL (no TTFields)
# [10] = AZD1152 100 nM, CONTROL (no TTFields)
compound,measurement,setting,value
"CCN(CCCOc1ccc2c(Nc3cc(CC(=O)Nc4cccc(F)c4)n[nH]3)ncnc2c1)CCOP(=O)(O)O [AZD1152, Barasertib]","cytotoxic effect, Observed TTFields + AZD1152",U87-MG [1]; AZD1152 25 nM + TTFields 200 kHz 1.6 V/cm RMS,13.5%
same,"cytotoxic effect, Expected",U87-MG [1]; AZD1152 25 nM + TTFields,23.5%
same,"cytotoxic effect, AZD1152",U87-MG [1]; AZD1152 25 nM alone,46%
same,"cytotoxic effect, Observed TTFields + AZD1152",U87-MG [1]; AZD1152 50 nM + TTFields 200 kHz 1.6 V/cm RMS,8.5%
same,"cytotoxic effect, Expected",U87-MG [1]; AZD1152 50 nM + TTFields,13.0%
same,"cytotoxic effect, AZD1152",U87-MG [1]; AZD1152 50 nM alone,25.5%
same,"cytotoxic effect, Observed TTFields + AZD1152",U87-MG [1]; AZD1152 100 nM + TTFields 200 kHz 1.6 V/cm RMS,4.0%
same,"cytotoxic effect, Expected",U87-MG [1]; AZD1152 100 nM + TTFields,4.8%
same,"cytotoxic effect, AZD1152",U87-MG [1]; AZD1152 100 nM alone,9.5%
same,cytotoxic effect of combined treatment of TTFields and AZD1152,"U87-MG [1]; TTFields 200 kHz 1.6 V/cm RMS 72 hours, 2-way ANOVA, p<0.001",significant enhancement of the cytotoxic effect
same,"overall effect, Observed TTFields + AZD1152",U87-MG [2]; [5],10.0%
same,"overall effect, Expected",U87-MG [2]; AZD1152 25 nM + TTFields,15.0%
same,"overall effect, AZD1152",U87-MG [2]; AZD1152 25 nM alone,31%
same,"overall effect, Observed TTFields + AZD1152",U87-MG [2]; [6],6.0%
same,"overall effect, Expected",U87-MG [2]; AZD1152 50 nM + TTFields,8.0%
same,"overall effect, AZD1152",U87-MG [2]; AZD1152 50 nM alone,16.5%
same,"overall effect, Observed TTFields + AZD1152",U87-MG [2]; [7],4.0%
same,"overall effect, Expected",U87-MG [2]; AZD1152 100 nM + TTFields,2.2%
same,"overall effect, AZD1152",U87-MG [2]; AZD1152 100 nM alone,4.5%
same,dosage required to achieve an overall effect of 38%,U87-MG^shp53; combined with TTFields,25 nM
same,dosage required to achieve an overall effect of 38%,U87-MG^shp53; in the absence of TTFields,70 nM
same,"overall effect, Observed TTFields + AZD1152","U87-MG^shp53; U87-MG^shp53, AZD1152 25 nM + TTFields 200 kHz 1.6 V/cm RMS",39.0%
same,"overall effect, Expected","U87-MG^shp53; U87-MG^shp53, AZD1152 25 nM + TTFields",51.0%
same,"overall effect, AZD1152","U87-MG^shp53; U87-MG^shp53, AZD1152 25 nM alone",79%
same,"overall effect, Observed TTFields + AZD1152","U87-MG^shp53; U87-MG^shp53, AZD1152 50 nM + TTFields 200 kHz 1.6 V/cm RMS",13.0%
same,"overall effect, Expected","U87-MG^shp53; U87-MG^shp53, AZD1152 50 nM + TTFields",33.9%
same,"overall effect, AZD1152","U87-MG^shp53; U87-MG^shp53, AZD1152 50 nM alone",52.5%
same,"overall effect, Observed TTFields + AZD1152","U87-MG^shp53; U87-MG^shp53, AZD1152 100 nM + TTFields 200 kHz 1.6 V/cm RMS",2.5%
same,"overall effect, Expected","U87-MG^shp53; U87-MG^shp53, AZD1152 100 nM + TTFields",7.1%
same,"overall effect, AZD1152","U87-MG^shp53; U87-MG^shp53, AZD1152 100 nM alone",11%
same,reduction of dosage required for a given level of overall effect when combined with TTFields,"U87-MG^shp53; with respect to the dosage giving the same overall effect in the absence of an alternating electric field, 'can often be'",at least 50%
same,"overall effect, Observed TTFields + AZD1152","U-251; U-251, AZD1152 6.25 nM + TTFields 200 kHz 1.6 V/cm RMS",8.0%
same,"overall effect, Expected","U-251; U-251, AZD1152 6.25 nM + TTFields",40.7%
same,"overall effect, AZD1152","U-251; U-251, AZD1152 6.25 nM alone",74%
same,"overall effect, Observed TTFields + AZD1152","U-251; U-251, AZD1152 12.5 nM + TTFields 200 kHz 1.6 V/cm RMS",0.7%
same,"overall effect, Expected","U-251; U-251, AZD1152 12.5 nM + TTFields",8.3%
same,"overall effect, AZD1152","U-251; U-251, AZD1152 12.5 nM alone",15%
same,"overall effect, Observed TTFields + AZD1152","U-251; U-251, AZD1152 25 nM + TTFields 200 kHz 1.6 V/cm RMS",0.2%
same,"overall effect, Expected","U-251; U-251, AZD1152 25 nM + TTFields",1.1%
same,"overall effect, AZD1152","U-251; U-251, AZD1152 25 nM alone",2%
same,"overall effect, Observed TTFields + AZD1152","U-251; U-251, AZD1152 50 nM + TTFields 200 kHz 1.6 V/cm RMS",0.2%
same,"overall effect, Expected","U-251; U-251, AZD1152 50 nM + TTFields",1.1%
same,"overall effect, AZD1152","U-251; U-251, AZD1152 50 nM alone",2%
same,"overall effect, Observed TTFields + AZD1152","U-251; U-251, AZD1152 100 nM + TTFields 200 kHz 1.6 V/cm RMS",0.2%
same,"overall effect, Expected","U-251; U-251, AZD1152 100 nM + TTFields",0.8%
same,"overall effect, AZD1152","U-251; U-251, AZD1152 100 nM alone",1.5%
same,DNA copy number 2n,U87-MG [3]; [5],39%
same,DNA copy number 4n,U87-MG [3]; [5],31%
same,DNA copy number 8n,U87-MG [3]; [5],9%
same,DNA copy number 16n,U87-MG [3]; [5],2%
same,DNA copy number 2n,U87-MG [3]; [8],55%
same,DNA copy number 4n,U87-MG [3]; [8],25%
same,DNA copy number 8n,U87-MG [3]; [8],4%
same,DNA copy number 16n,U87-MG [3]; [8],1%
same,DNA copy number 2n,U87-MG [3]; [6],28%
same,DNA copy number 4n,U87-MG [3]; [6],36%
same,DNA copy number 8n,U87-MG [3]; [6],16%
same,DNA copy number 16n,U87-MG [3]; [6],2%
same,DNA copy number 2n,U87-MG [3]; [9],45%
same,DNA copy number 4n,U87-MG [3]; [9],26%
same,DNA copy number 8n,U87-MG [3]; [9],8%
same,DNA copy number 16n,U87-MG [3]; [9],2%
same,DNA copy number 2n,U87-MG [3]; [7],11%
same,DNA copy number 4n,U87-MG [3]; [7],40%
same,DNA copy number 8n,U87-MG [3]; [7],25%
same,DNA copy number 16n,U87-MG [3]; [7],4%
same,DNA copy number 2n,U87-MG [3]; [10],27%
same,DNA copy number 4n,U87-MG [3]; [10],33%
same,DNA copy number 8n,U87-MG [3]; [10],22%
same,DNA copy number 16n,U87-MG [3]; [10],3%
same,maximum tolerated AZD1152 dose,"[4]; administered as two 2-h infusions (110 mg/day, days 1, 2, 15 and 16)",220 mg
same,maximum tolerated AZD1152 dose,[4]; as a 48-h continuous infusion,150 mg
